From PMC7997937 (AMB Express, 2021)
Converted amounts (≈) assume the structure as drawn. Where no end group is shown, it is not given here.

What was measured:
[1] = ppGpp binding affinity by ZIC-HILIC HPLC; conditions: ppGpp 1000 μg/mL + peptide 400 μg/mL, 10 min, centrifuged, HPLC UV 260 nm; mean of triplicate; ppGpp control peak area 34904
Protocol: The temperature of the column is kept at 25 ℃. The ppGpp (TriLink BioTechnologies, USA) which diluted with mobile phase to a concentration of 1000 μg/mL, was used as a positive control. Then the ppGpp (1000 μg/mL) was incubated with peptides (400 μg/mL) for 10 min and centrifuged at 12000 rpm for 10 min. The ppGpp concentration of the samples was calculated by comparing the peak areas of the ppGpp standard.

MRSA ATCC43300 [2] = experiment: microbe, parasite or virus in culture
Protocol: (§1) The MIC values of peptides against test stains were determined by the microtiter broth dilution method. The bacteria were grown to mid-logarithmic phase and diluted to 1 × 10^5 CFU/mL. Two-fold serial dilutions of peptides were prepared with a gradient concentration of 1280, 640, 320, 160, 80, 40, 20, 10, 5, 2.5, 1.25, and 0.625 μg/mL. A total of 10 μL each serial concentration gradient peptide solutions and 90 μL bacterial suspension were added into 96-well plates. Then the plate was cultured at 37 ℃ for 16–24 h. Vancomycin was tested as control. All assays were performed in triplicate. The MIC refers to the lowest peptide concentration at which there is no visible growth of bacteria (Wiegand et al. [2008]).

MSSA ATCC25923 = experiment: microbe, parasite or virus in culture
Protocol: as §1

MSSA ATCC6538 = experiment: microbe, parasite or virus in culture
Protocol: as §1

[3] = Temperature stability (MIC read-out); format: physicochemical; conditions: MIC against MRSA ATCC43300
Protocol: (§2) The untreated peptides were used as control. […] All assays were performed in triplicate.

[4] = format: physicochemical; conditions: for MIC at pH 2–10, folds of the normal condition: 3 h incubation in buffers pH 2.0–10.0, relative to MH medium
Protocol: as §2

pepsin = pepsin 3000 U/mg, pH 2.0, 10:1 w/w, 4 h, 37 °C; MIC against MRSA ATCC43300
Protocol: (§3) The pH stability of peptides was determined after 3 h incubation in 100 mM glycine-HCl buffer (pH 2.0), sodium acetate buffer (pH 4.0), sodium phosphate buffer (pH 6.0), Tris-HCl buffer (pH 8.0), or glycine-NaOH buffer (pH 10.0). Additionally, peptides were incubated in pepsin (3000 U/mg, pH 2.0) and trypsin (250 U/mg, pH 8.0) (10:1, w/w) solutions for 4 h at 37 °C, respectively. The untreated peptides were used as control. The antibacterial activity of treated peptides against MRSA ATCC43300 was determined by MIC determine assay (Yang et al. [2017]). All assays were performed in triplicate.

trypsin = trypsin 250 U/mg, pH 8.0, 10:1 w/w, 4 h, 37 °C; MIC against MRSA ATCC43300
Protocol: as §3

MRSA ATCC43300 [5] = experiment: SEM/TEM observation of treated bacteria; format: cell-based, Staphylococcus aureus; conditions: 4× MIC, 2 h, 37 °C
Protocol: The bacteria were fixed with 2.5% glutaraldehyde at 4 °C overnight. For SEM, the bacterial were then dehydrated with a series of graded ethanol solutions (20%, 50%, 70%, 85%, 95% and 100%) and dried by CO2. Gold-palladium was sputtered on samples and observed on a S4800 SEM. For TEM, bacterial were post-fixed with 1% OsO4 for 1 h and then dehydrated for 7 min each time with a graded acetone series (50%, 70%, 85%, 95% and 100%). The samples were immersed in epoxy resin and embedded in capsules containing embedding medium, polymerized at 45 °C for 3 h and at 65 °C for 24 h, respectively. Ultramicrotome was used to acquire thin sections, followed by staining with 1% uranyl acetate. Images were visualized by a Hitachi H-7650 TEM (Yang et al. [2019]).

[6] = tested on: genomic DNA from MRSA ATCC43300; experiment: Gel retardation assay; format: binding, Staphylococcus aureus; conditions: 10 min, room temperature, 1% agarose gel
Protocol: To examine the interaction of peptides and MRSA genomic DNA, the gel migration experiment was performed. Genomic DNA was obtained by bacterial genome extraction kit. Different concentrations (0.625 to 20 μg/mL) of peptides and DNA were mixed and incubated for 10 min at room temperature. The migration of genomic DNA was analyzed by electrophoresis on a 1% agarose gel.

MRSA ATCC43300 biofilm [7] = experiment: Inhibition of biofilm formation, crystal violet; format: cell-based, Staphylococcus aureus
Protocol: To evaluate the effect of peptides on the biofilm information, mid-logarithmic phase MRSA ATCC43300 (1×10^8 CFU/mL) was grown in tryptic soy broth (TSB) medium on 96-well plates at 37 °C […] in the presence (2–64 μg/mL) or absence of peptides (de Breij et al. [2018]; de Breij et al. [2016]). Subsequently, the planktonic bacteria were removed and biofilms were stained for 30 min with 0.1% crystal violet. After rinsing with PBS twice, the dye binding to the adherent bacterial cells was resolubilized in 95% ethanol (200 μL/well). Finally, absorbance was measured at 570 nm with a microplate reader. Fresh TSB medium was used as negative control.

MRSA ATCC43300 biofilm [8] = experiment: Biofilms observed by CLSM and SEM; format: cell-based, Staphylococcus aureus; conditions: 64 μg/mL, 24 h, SYTO9/PI
Protocol: In order to further explore whether the formation of MRSA ATCC43300 biofilms can be inhibited by peptides, the mid-log phase bacteria were diluted to 1 × 10^8 CFU/mL with TSB medium and seeded into 24-well plates with a glass microscope slide or silicon slice in each well. A concentration of 64 μg/mL peptides were added into plates and incubated for 24 h. Planktonic bacteria were removed by washing with PBS gently. Biofilms on glass microscope slide were stained with SYTO9 and PI according to the instruction (LIVE/DEAD BacLight Bacterial Viability Kit). After incubation for 15 min, the slides were washed with PBS and the biofilms were visualized by SP8 CLSM. Biofilm on silicon slice could be observed by SEM after immobilization, dehydration, drying and coating (Yang et al. [2019]).

MRSA ATCC43300 [9] = experiment: qRT-PCR of ppGpp metabolism and biofilm formation related genes; format: cell-based, Staphylococcus aureus; conditions: 4× MIC, 2 h, 16s rRNA reference
Protocol: The ppGpp metabolism and biofilm formation related genes RSH, relP, relQ, rsbU, sigB, spA, codY, agrA and icaD were chosen in this study. Primer sequences were designed and listed in Additional file 1: Table S1. The 16s rRNA was used as a housekeeping one. […] After washing twice with PBS, the total RNA was isolated. Then cDNA was obtained followed by removing genomic DNA. Finally, real-time reverse transcription-polymerase chain reaction (qRT-PCR) was conducted as previously described. The relative expression ratios were calculated as follows: n-fold transcription = 2^−△△Ct, ∆∆Ct = ∆Ct (drug-treated)[…]∆Ct (untreated), where ∆Ct represents the difference between the cycle threshold (Ct) of the gene studied and the Ct of housekeeping 16s rRNA gene (internal control). Student’s t test was used for analyzing those PCR results (Lee et al. [2013]).

MRSA ATCC43300 [10] = experiment: Time-kill curves; format: cell-based, Staphylococcus aureus; conditions: 2× MIC
Protocol: The time-kill curves against MRSA ATCC43300 were assayed to evaluate the pharmacodynamics of peptides. The mid-log phase bacteria were diluted to 1×10^5 CFU/mL with fresh medium. […] Finally, the mixtures were cultured at 37 °C and 250 rpm. Samples (150 μL) were taken from each flask at 0, 0.5, 1, 2, 4, 6, 8, 10, 12 and 24 h of incubation, and antimicrobial efficiency was measured by plate colony count (Yang et al. [2019]). Treatment with peptide solvent (PBS) and vancomycin at 2× MIC were used as the negative and positive control. All tests were run in triplicate.

[11] = ref de la Fuente-Nunez et al. [2014]; cited from earlier work
Text: Antimicrobial peptides (AMPs) are kind of bioactive agents with multiple modes of action and appear as one of the most promising antimicrobial drug candidates (Hancock and Sahl [2006]). […] The antimicrobial activity of AMPs was mainly based on their positive charge and hydrophobic residues, which gave them the properties of bacterial cell membrane destruction (Mahlapuu et al. [2016]). Among them, a small synth ...

## VRLRWWRRRWRR-NH2 [1018M]
[1]
  mean ppGpp peak area after incubation with peptide: 14255
MRSA ATCC43300 [2]; ATCC43300
  MIC: 2 µg/mL
MSSA ATCC25923; ATCC25923
  MIC: 2 µg/mL
MSSA ATCC6538; ATCC6538
  MIC: 1 µg/mL
[3]; 20, 40, 60, 80 or 100 °C for 1 h, triplicate
  antibacterial activity after heat exposure: not changed
[4]; 3 h, pH 2
  MIC at pH 2–10: 2–4 μg/mL
[4]
  MIC at pH 2–10, folds of the normal condition: 1–2 folds
pepsin
  activity after treatment with pepsase: 100%
trypsin
  MIC after trypsin, times of the untreated peptide: 16-32 times
MRSA ATCC43300 [5]
  ghost bacteria (TEM): About 10%
[6]
  concentration inhibiting migration of genomic DNA: 5 µg/mL
MRSA ATCC43300 biofilm [7]; 64 μg/mL, 24 h, A570
  decrease of percentage of biofilm: 78.9%
MRSA ATCC43300 biofilm [8]
  biofilm formation observed by CLSM: completely inhibited
MRSA ATCC43300 [9]
  transcription of AgrA gene, times upregulated: 2.595 time

## CN[C@H](CC(C)C)C(=O)N[C@H]1C(=O)N[C@@H](CC(N)=O)C(=O)N[C@H]2C(=O)N[C@H]3C(=O)N[C@H](C(=O)N[C@H](C(=O)O)c4cc(O)cc(O)c4-c4cc3ccc4O)[C@H](O)c3ccc(c(Cl)c3)Oc3cc2cc(c3O[C@@H]2O[C@H](CO)[C@@H](O)[C@H](O)[C@H]2O[C@H]2C[C@](C)(N)[C@H](O)[C@H](C)O2)Oc2ccc(cc2Cl)[C@H]1O [vancomycin, reference compound]
MRSA ATCC43300 [2]; Staphylococcus aureus
  MIC: 1 µg/mL (≈ 0.69 µM)
MSSA ATCC25923; Staphylococcus aureus
  MIC: 1 µg/mL (≈ 0.69 µM)
MSSA ATCC6538; Staphylococcus aureus
  MIC: 1 µg/mL (≈ 0.69 µM)
MRSA ATCC43300 [10]
  incubation time after which bacteria rejuvenated: 10 h

## VRLIVAVRIWRR-NH2 [IDR-1018, reference compound]
[1]
  mean ppGpp peak area after incubation with peptide: 19723
[3]; 100 °C for 1 h
  retained antibacterial activity: 50%
[4]
  MIC at pH 2–10, folds of the normal condition: 1-4 times
trypsin
  MIC after trypsin, times of the untreated peptide: 16-32 times
[6]
  concentration inhibiting migration of genomic DNA: 1.25 µg/mL
MRSA ATCC43300 biofilm [7]; 2–64 μg/mL
  impact on biofilm formation: nearly no impact
[11]
  MBIC100 (anti-biofilm): 2 to 10 µg/mL
  MIC (antibacterial): 8 to 256 µg/mL
